According to patent publication US12655116B2, “Substituted isophthalic acid diamides” (Bayer Aktiengesellschaft, priority 2020, dated 2026):

Experiments:
DIGSA = experiment: Pre-emergence herbicidal action against DIGSA; assay type: in vivo, Digitaria sanguinalis; conditions: Digitaria sanguinalis, 504 h; for pest or weed control at 20 g/ha: dosage 20 g/ha; for pest or weed control at 80 g/ha: dosage 80 g/ha
Procedure, shortened: (§1)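 Visual rating at 3 weeks vs untreated pots; 0–100% scale, 100% = plants died. Treatment: aqueous WP/EC spray onto covering soil, 600–800 l/ha, 0.2% wetter, seeds in sandy loam.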

MATIN [1] = experiment: Post-emergence herbicidal action against MATIN; assay type: in vivo, Matricaria inodora; conditions: Tripleurospermum inodorum, 504 h, dosage 20 g/ha
Procedure, shortened: (§2)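 Weeds in sandy loam soil received a post-emergence spray at the one-leaf stage. Compounds were applied as WP or EC in water, 600 to 800 l/ha, with 0.2% wetting agent. Activity in % was judged visually after roughly 3 weeks against untreated plants.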

ECHCG [2] = experiment: Post-emergence herbicidal action against ECHCG; assay type: in vivo, Echinochloa crus-galli; conditions: Echinochloa crus-galli, 504 h; for pest or weed control at 20 g/ha: dosage 20 g/ha
Procedure, shortened: as §2

VIOTR [3] = experiment: Pre-emergence herbicidal action against VIOTR; assay type: in vivo, Viola tricolor; conditions: Viola tricolor, 504 h; for pest or weed control at 80 g/ha: dosage 80 g/ha
Procedure, shortened: as §1

AMARE = experiment: Pre-emergence herbicidal action against AMARE; assay type: in vivo, Amaranthus retroflexus; conditions: Amaranthus retroflexus, 504 h, scored visually after 3 weeks vs untreated controls, 100% = plants have died, 0% = like control plants
Procedure, shortened: as §1

SETVI [4] = experiment: Pre-emergence herbicidal action against SETVI; assay type: in vivo, Setaria viridis; conditions: Setaria viridis, 504 h, dosage 80 g/ha
Procedure, shortened: as §1

VIOTR [5] = experiment: Post-emergence herbicidal action against VIOTR; assay type: in vivo, Viola tricolor; conditions: Viola tricolor, 504 h
Procedure, shortened: as §2

SETVI [6] = experiment: Post-emergence herbicidal action against SETVI; assay type: in vivo, Setaria viridis; conditions: Setaria viridis, 504 h, dosage 20 g/ha
Procedure, shortened: as §2

PHBPU = experiment: Post-emergence herbicidal action against PHBPU; assay type: in vivo, Pharbitis purpurea; conditions: Ipomoea purpurea, 504 h, dosage 20 g/ha
Procedure, shortened: as §2

MATIN [7] = experiment: Pre-emergence herbicidal action against MATIN; assay type: in vivo, Matricaria inodora; conditions: Tripleurospermum inodorum, 504 h; for pest or weed control at 20 g/ha: dosage 20 g/ha; for pest or weed control at 80 g/ha: dosage 80 g/ha
Procedure, shortened: as §1

ABUTH [8] = experiment: Post-emergence herbicidal action against ABUTH; assay type: in vivo, Abutilon theophrasti; conditions: Abutilon theophrasti, 504 h, visual assessment about 3 weeks after treatment vs untreated controls; for pest or weed control at 5 g/ha: dosage 5 g/ha; for pest or weed control at 20 g/ha: dosage 20 g/ha
Procedure, shortened: as §2

ABUTH [9] = experiment: Pre-emergence herbicidal action against ABUTH; assay type: in vivo, Abutilon theophrasti; conditions: Abutilon theophrasti, 504 h; for pest or weed control at 80 g/ha: scored visually after 3 weeks vs untreated controls (100% = plants have died, 0% = like control plants); for pest or weed control at 20 g/ha: dosage 20 g/ha, scored visually after 3 weeks vs untreated controls, 100% = plants have died, 0% = like control plants, read-out: Pre-emergence action against ABUTH (herbicidal activity in percent)
Procedure, shortened: as §1

ECHCG [10] = experiment: Pre-emergence herbicidal action against ECHCG; assay type: in vivo, Echinochloa crus-galli; conditions: Echinochloa crus-galli, 504 h, 80 g/ha
Procedure, shortened: as §1

VERPE [11] = experiment: Post-emergence herbicidal action against VERPE; assay type: in vivo, Veronica persica; conditions: Veronica persica, 504 h
Procedure, shortened: as §2

POLCO = experiment: Post-emergence herbicidal action against POLCO; assay type: in vivo, Polygonum convolvulus; conditions: Fallopia convolvulus, 504 h; for pest or weed control at 20 g/ha: dosage 20 g/ha
Procedure: Seeds of monocotyledonous and dicotyledonous weed and crop plants are laid out in sandy loam soil in wood-fiber pots, covered with soil and cultivated in a greenhouse under good growth conditions. 2 to 3 weeks after sowing, the test plants are treated at the one-leaf stage. The compounds of the invention, formulated in the form of wettable powders (WP) or as emulsion concentrates (EC), are then sprayed onto the green parts of the plants in the form of an aqueous suspension or emulsion at a water application rate equivalent to 600 to 800 l/ha, with addition of 0.2% wetting agent. After the test plants have been left to stand in the greenhouse under optimal growth conditions for about 3 weeks, the action of the preparations is assessed visually in comparison to untreated controls (herbicidal action in percent (%): 100% activity=the plants have died, 0% activity=like control plants). […] The tables below illustrate, in an illustrative manner, the post-emergence herbicidal action of the compounds of the invention, the herbicidal activity being stated in percent.

ALOMY = experiment: Pre-emergence herbicidal action against ALOMY; assay type: in vivo, Alopecurus myosuroides; conditions: Alopecurus myosuroides, 504 h; 80 g/ha, pre-emergence, scored visually after 3 weeks vs untreated controls (100% = plants have died, 0% = like control plants)
Procedure, shortened: as §1

VERPE [12] = experiment: Pre-emergence herbicidal action against VERPE; assay type: in vivo, Veronica persica; conditions: Veronica persica, 504 h
Procedure, shortened: as §1

SMILES: CNC(=O)c1c(C(F)F)ccc(C(=O)Nc2nnnn2C)c1OC [Example 1-72]
- pest or weed control at 20 g/ha (DIGSA): 90%
- pest or weed control at 80 g/ha (DIGSA): 100%
- pest or weed control at 20 g/ha (MATIN [1]): 80%
- pest or weed control at 20 g/ha (ECHCG [2]): 80%
- pest or weed control at 80 g/ha (VIOTR [3]): 100%
- pest or weed control at 20 g/ha (AMARE): 100%
- pest or weed control at 80 g/ha (AMARE): 100%
- pest or weed control at 80 g/ha (SETVI [4]): 100%
- pest or weed control at 20 g/ha (VIOTR [5]): 90%
- pest or weed control at 20 g/ha (SETVI [6]): 80%
- pest or weed control at 20 g/ha (PHBPU): 80%
- pest or weed control at 20 g/ha (MATIN [7]): 80%
- pest or weed control at 80 g/ha (MATIN [7]): 100%
- pest or weed control at 5 g/ha (ABUTH [8]): 80%
- pest or weed control at 20 g/ha (ABUTH [8]): 90%
- pest or weed control at 80 g/ha (ABUTH [9]): 100%
- pest or weed control at 20 g/ha (ABUTH [9]): 100%
- pest or weed control at 80 g/ha (ECHCG [10]): 80%
- pest or weed control at 5 g/ha (VERPE [11]): 80%
- pest or weed control at 20 g/ha (VERPE [11]): 90%
- pest or weed control at 5 g/ha (POLCO; dosage 5 g/ha): 100%
- pest or weed control at 20 g/ha (POLCO): 100%

SMILES: CCNC(=O)c1c(C(F)F)ccc(C(=O)Nc2nnnn2C)c1OC [Example 1-73]
- pest or weed control at 20 g/ha (DIGSA): 90%
- pest or weed control at 80 g/ha (DIGSA): 100%
- pest or weed control at 80 g/ha (ALOMY): 80%
- pest or weed control at 20 g/ha (VERPE [12]; dosage 20 g/ha): 80%
- pest or weed control at 80 g/ha (VERPE [12]; dosage 80 g/ha): 100%
- pest or weed control at 20 g/ha (MATIN [1]): 80%
- pest or weed control at 5 g/ha (ECHCG [2]; dosage 5 g/ha): 80%
- pest or weed control at 20 g/ha (ECHCG [2]): 80%
- pest or weed control at 20 g/ha (VIOTR [3]; dosage 20 g/ha): 100%
- pest or weed control at 80 g/ha (VIOTR [3]): 100%
- pest or weed control at 20 g/ha (AMARE): 100%
- pest or weed control at 80 g/ha (AMARE): 100%
- pest or weed control at 80 g/ha (SETVI [4]): 100%
- pest or weed control at 5 g/ha (VIOTR [5]; 5 g/ha): 80%
- pest or weed control at 20 g/ha (VIOTR [5]): 80%
- pest or weed control at 20 g/ha (MATIN [7]): 90%
- pest or weed control at 80 g/ha (MATIN [7]): 100%
- pest or weed control at 5 g/ha (ABUTH [8]): 80%
- pest or weed control at 20 g/ha (ABUTH [8]): 80%
- pest or weed control at 80 g/ha (ABUTH [9]): 100%
- pest or weed control at 20 g/ha (ABUTH [9]): 100%
- pest or weed control at 80 g/ha (ECHCG [10]): 100%
- pest or weed control at 5 g/ha (VERPE [11]): 80%
- pest or weed control at 20 g/ha (VERPE [11]): 80%
- pest or weed control at 20 g/ha (POLCO): 80%
